Measurements from ChEMBL document CHEMBL1201862, “PubChem BioAssay data set” (2004).
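All cell lines were grown in 96-well plates and treated with compound for 48 hours. Here, GI50 denotes the concentration required for 50% inhibition of growth.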 Activity calls are given as the source filed them. Rule as the data show it: active = GI50 up to about 1.1 µM and inactive = higher.

Legend:
Test in all cases: growth of human tumour cells (NCI), 48 h
786-0 = system: 786-0
A498 = system: A498
A549 = system: A549
ACHN = system: ACHN
CAKI-1 = system: CAKI-1
CCRF-CEM = system: CCRF-CEM
COLO 205 = system: COLO 205
DLD-1 = system: DLD-1
DMS-114 = system: DMS-114
DMS-273 = system: DMS-273
EKVX = system: EKVX
HCC 2998 = system: HCC 2998
HCT-116 = system: HCT-116
HCT-15 = system: HCT-15
HL-60 = system: HL-60
HOP-18 = system: HOP-18
HOP-62 = system: HOP-62
HOP-92 = system: HOP-92
HT-29 = system: HT-29
IGROV-1 = system: IGROV-1
K562 = system: K562
KM-20L2 = system: KM-20L2
KM12 = system: KM12
LOX IMVI = system: LOX IMVI
LXFL 529 = system: LXFL 529
M14 = system: M14
M19-MEL = system: M19-MEL
MOLT-4 = system: MOLT-4
Malme-3M = system: Malme-3M
NCI-H226 = system: NCI-H226
NCI-H23 = system: NCI-H23
NCI-H460 = system: NCI-H460
NCI-H522 = system: NCI-H522
OVCAR-3 = system: OVCAR-3
OVCAR-5 = system: OVCAR-5
OVCAR-8 = system: OVCAR-8
RPMI-8226 = system: RPMI-8226
RXF 393 = system: RXF 393
SF-268 = system: SF-268
SF-295 = system: SF-295
SF-539 = system: SF-539
SK-MEL-28 = system: SK-MEL-28
SK-MEL-2 = system: SK-MEL-2
SK-MEL-5 = system: SK-MEL-5
SK-OV-3 = system: SK-OV-3
SN12C = system: SN12C
SNB-19 = system: SNB-19
SNB-75 = system: SNB-75
SR = system: SR
SW-620 = system: SW-620
TK-10 = system: TK-10
U-251 = system: U-251
UACC-257 = system: UACC-257
UACC-62 = system: UACC-62
UO-31 = system: UO-31
XF498 = system: XF498
BT-549 = system: BT-549
DU-145 = system: DU-145
Hs-578T = system: Hs-578T
MCF7 = system: MCF7
MDA-MB-231 = system: MDA-MB-231
MDA-MB-435 = system: MDA-MB-435
MDA-N = system: MDA-N
NCI/ADR-RES = system: NCI/ADR-RES
OVCAR-4 = system: OVCAR-4
PC-3 = system: PC-3
SNB-78 = system: SNB-78
T47D = system: T47D

CNS(=O)(=O)NNS(=O)(=O)c1ccccc1
GI50 (786-0): > 100000 nM (inactive) | GI50 (A498): > 100000 nM (inactive) | GI50 (A549): > 100000 nM (inactive) | GI50 (ACHN): > 100000 nM (inactive) | GI50 (CAKI-1): > 100000 nM (inactive) | GI50 (CCRF-CEM): > 100000 nM (inactive) | GI50 (COLO 205): > 100000 nM (inactive) | GI50 (DLD-1): > 100000 nM (inactive) | GI50 (DMS-114): > 100000 nM (inactive) | GI50 (DMS-273): > 100000 nM (inactive) | GI50 (EKVX): > 100000 nM (inactive) | GI50 (HCC 2998): > 100000 nM (inactive) | GI50 (HCT-116): > 100000 nM (inactive) | GI50 (HCT-15): > 100000 nM | GI50 (HL-60): > 100000 nM (inactive) | GI50 (HOP-18): > 100000 nM (inactive) | GI50 (HOP-62): > 100000 nM (inactive) | GI50 (HOP-92): > 100000 nM (inactive) | GI50 (HT-29): > 100000 nM (inactive) | GI50 (IGROV-1): > 100000 nM (inactive) | GI50 (K562): > 100000 nM (inactive) | GI50 (KM-20L2): > 100000 nM (inactive) | GI50 (KM12): > 100000 nM (inactive) | GI50 (LOX IMVI): > 100000 nM (inactive) | GI50 (LXFL 529): > 100000 nM (inactive) | GI50 (M14): > 100000 nM (inactive) | GI50 (M19-MEL): > 100000 nM (inactive) | GI50 (MOLT-4): > 100000 nM (inactive) | GI50 (Malme-3M): > 100000 nM (inactive) | GI50 (NCI-H226): > 100000 nM (inactive) | GI50 (NCI-H23): > 100000 nM (inactive) | GI50 (NCI-H460): > 100000 nM (inactive) | GI50 (NCI-H522): > 100000 nM (inactive) | GI50 (OVCAR-3): > 100000 nM (inactive) | GI50 (OVCAR-5): > 100000 nM (inactive) | GI50 (OVCAR-8): > 100000 nM (inactive) | GI50 (RPMI-8226): > 100000 nM (inactive) | GI50 (RXF 393): > 100000 nM (inactive) | GI50 (SF-268): > 100000 nM (inactive) | GI50 (SF-295): > 100000 nM (inactive) | GI50 (SF-539): > 100000 nM (inactive) | GI50 (SK-MEL-28): > 100000 nM (inactive) | GI50 (SK-MEL-2): > 100000 nM (inactive) | GI50 (SK-MEL-5): > 100000 nM (inactive) | GI50 (SK-OV-3): > 100000 nM (inactive) | GI50 (SN12C): > 100000 nM (inactive) | GI50 (SNB-19): > 100000 nM (inactive) | GI50 (SNB-75): > 100000 nM (inactive) | GI50 (SR): > 100000 nM (inactive) | GI50 (SW-620): > 100000 nM (inactive) | GI50 (TK-10): > 100000 nM (inactive) | GI50 (U-251): > 100000 nM (inactive) | GI50 (UACC-257): > 100000 nM (inactive) | GI50 (UACC-62): > 100000 nM (inactive) | GI50 (UO-31): > 100000 nM (inactive) | GI50 (XF498): > 100000 nM (inactive)

CO[C@H]1Nc2c(ccc(C)c2O)C(=O)N2C=C(/C=C/C(N)=O)C[C@@H]12 [ANTHRAMYCIN METHYL ETHER]
GI50 (786-0): 16.3 nM (active) | GI50 (A498): 183 nM (active) | GI50 (A549): 33.1 nM (active) | GI50 (ACHN): 18.1 nM (active) | GI50 (BT-549): 14.3 nM (active) | GI50 (CAKI-1): 47 nM (active) | GI50 (CCRF-CEM): 19.3 nM (active) | GI50 (COLO 205): 31.6 nM (active) | GI50 (DLD-1): 118 nM (active) | GI50 (DMS-114): 21.3 nM (active) | GI50 (DMS-273): 29.5 nM (active) | GI50 (DU-145): 37.7 nM (active) | GI50 (EKVX): 46.2 nM (active) | GI50 (HCC 2998): 43.6 nM (active) | GI50 (HCT-116): 38.2 nM (active) | GI50 (HCT-15): 28.2 nM | GI50 (HL-60): 43.6 nM (active) | GI50 (HOP-18): 444 nM (active) | GI50 (HOP-62): 18.6 nM (active) | GI50 (HOP-92): 25.8 nM (active) | GI50 (HT-29): 25.6 nM (active) | GI50 (Hs-578T): 10.3 nM (active) | GI50 (IGROV-1): 35.8 nM (active) | GI50 (K562): 39.6 nM (active) | GI50 (KM-20L2): 184 nM (active) | GI50 (KM12): 30.3 nM (active) | GI50 (LOX IMVI): 16.1 nM (active) | GI50 (M14): 14.3 nM (active) | GI50 (M19-MEL): 26.9 nM (active) | GI50 (MCF7): 38.9 nM (active) | GI50 (MDA-MB-231): 15.9 nM (active) | GI50 (MDA-MB-435): 14 nM (active) | GI50 (MDA-N): 13.3 nM (active) | GI50 (MOLT-4): 27.6 nM (active) | GI50 (Malme-3M): 26.1 nM (active) | GI50 (NCI-H226): 128 nM (active) | GI50 (NCI-H23): 32.7 nM (active) | GI50 (NCI-H460): 32.2 nM (active) | GI50 (NCI-H522): 22.2 nM (active) | GI50 (NCI/ADR-RES): 31.5 nM (active) | GI50 (OVCAR-3): 51.6 nM (active) | GI50 (OVCAR-4): 52 nM (active) | GI50 (OVCAR-5): 54.1 nM (active) | GI50 (OVCAR-8): 39.4 nM (active) | GI50 (PC-3): 21.5 nM (active) | GI50 (RPMI-8226): 24.2 nM (active) | GI50 (RXF 393): 29.6 nM (active) | GI50 (SF-268): 18.3 nM (active) | GI50 (SF-295): 19.9 nM (active) | GI50 (SF-539): 18.5 nM (active) | GI50 (SK-MEL-28): 29.9 nM (active) | GI50 (SK-MEL-2): 15.1 nM (active) | GI50 (SK-MEL-5): 16.8 nM (active) | GI50 (SK-OV-3): 40.5 nM (active) | GI50 (SN12C): 22.1 nM (active) | GI50 (SNB-19): < 17.9 nM (active) | GI50 (SNB-75): 22.8 nM (active) | GI50 (SNB-78): 25.8 nM (active) | GI50 (SR): < 23.4 nM (active) | GI50 (SW-620): 30.8 nM (active) | GI50 (T47D): 495 nM (active) | GI50 (TK-10): 58.5 nM (active) | GI50 (U-251): 16.2 nM (active) | GI50 (UACC-257): 59.6 nM (active) | GI50 (UACC-62): 15.1 nM (active) | GI50 (UO-31): 17.5 nM (active) | GI50 (XF498): < 10 nM (active)
